Assay results: a melting point compilation (Tetko et al.; mined from patent text by program, amines drawn as free bases though some values may be those of a salt)

Question: With `O=c1oc2c(c(O)c1Sc1nc3ccccc3o1)c(=O)n(Cc1ccccc1)c1ccccc21` as the molecule, how does the melting point read?
Answer: 196 to 198 °C

Question: With `O=C1NC2CCC1NC2=O` as the molecule, how does the melting point read?
Answer: 275 to 277 °C

Question: With `N#CSc1ccc(N)c(C#N)c1` as the molecule, how does the melting point read?
Answer: 120 to 121 °C

Question: Which melting point does the source give for `Cn1cncc1C(CC#N)(c1ccc(Cl)cc1)c1ccc2c(c1)c(-c1cccc(Cl)c1)cc(=O)n2C` (stereo unspecified) here?
Answer: 151 °C

Question: For `O=C(Nc1ccc(CN2C(=O)CNC2=O)cc1)c1cc(=O)c2ccccc2o1`, which melting point is on record?
Answer: 258 to 261 °C

Question: Which melting point does the source give for `C[C@@H](CO)Oc1ccc(-c2ccccc2)cc1` here?
Answer: 75 to 78 °C

Question: Which melting point does the source give for `Cc1cccc(N2CCN(c3ccc(Oc4ccccc4)nn3)CC2)c1` here?
Answer: 123 °C

Question: With `CCOC(=O)CC(=O)Sc1cc(Cl)c(Cl)cc1Cl` as the molecule, how does the melting point read?
Answer: 41 to 43 °C

Question: For `O=C(O)c1ccc2c(c1)Sc1ccc(F)cc1C=C2`, which melting point is on record?
Answer: 273 to 275 °C

Question: With `CC(F)(F)c1cccc(Oc2ccc(C3CCCN4CCS(=O)(=O)N=C34)cc2)c1` (stereo unspecified) as the molecule, how does the melting point read?
Answer: 117 to 118 °C

Question: For `BrCCOc1cccc2c1SCCC2`, which melting point is on record?
Answer: 62 °C

Question: Which melting point does the source give for `CCCCCCCCCCCCCC(=O)N[C@H]1CCCNC(=O)C1` here?
Answer: 97 to 98 °C

Question: Which melting point does the source give for `CNC1=NN(c2cccc(Cl)c2)CC1C` (stereo unspecified) here?
Answer: 75 to 76 °C

Question: For `O=C(O)COc1cc(Br)c2oc3cccc(F)c3c(=O)c2c1`, which melting point is on record?
Answer: 220 to 223 °C

Question: With `COc1ccc(C(C)=NOCc2cccc(F)c2)cc1F` as the molecule, how does the melting point read?
Answer: 67 °C

Question: With `CCOC(=O)c1c(O)c2cccnc2n(Cc2ccc(OC)cc2)c1=O` as the molecule, how does the melting point read?
Answer: 153 °C

Question: Which melting point does the source give for `CCOC(=O)CCCCCOc1ccc(-c2nc(=O)c3ccccc3s2)cn1` here?
Answer: 73.6 to 73.9 °C

Question: With `O=C(O)CCCc1c(-c2ccc(F)cc2)[nH]c2ccc(-c3ccc(O)cc3)cc12` as the molecule, how does the melting point read?
Answer: 180 to 183 °C

Question: For `O=[N+]([O-])c1ccc(-c2nc(CO)no2)cc1`, which melting point is on record?
Answer: 155 to 156 °C

Question: Which melting point does the source give for `Cc1cnc(N)cc1C` here?
Answer: 113 to 114 °C

Question: For `Cn1nccc1NC(=O)N1CCN(c2nc(-c3ccccc3F)cs2)CC1`, which melting point is on record?
Answer: 156 to 157 °C

Question: For `CN(Cc1ccc(N)cc1)C1CCOCC1`, which melting point is on record?
Answer: 93 to 94 °C

Question: For `CC(C)Cc1nn(C)c(=O)c2c(S(=O)(=O)CCCO)c(Cc3ccccc3)sc12`, which melting point is on record?
Answer: 105 to 107 °C

Question: Which melting point does the source give for `CC(=O)Nc1cc2c(cc1[N+](=O)[O-])[C@@H](NC(C)=O)[C@H](O)C(C)(C)O2` (relative stereo) here?
Answer: 256 to 259 °C

Question: For `CC(C)N(CCN1C(=O)/C(=N/NC(N)=O)c2cc(F)ccc21)C(C)C`, which melting point is on record?
Answer: 158 to 160 °C

Question: For `COC(=O)c1c(C(F)(F)F)noc1NS(=O)(=O)c1ccccc1`, which melting point is on record?
Answer: 100 to 101 °C

Question: For `N#Cc1ccc2c(c1)S(=O)(=O)c1ccc(Cl)cc1C=C2`, which melting point is on record?
Answer: 228 to 230 °C

Question: With `CCOC(=O)c1ccc(-c2cnc3c(c2)N(Cc2ccccc2)CCN3)cc1` as the molecule, how does the melting point read?
Answer: 178 to 179 °C

Question: For `COc1ccc2c(c1)Oc1c(ccc(OC)c1C=O)C2(C)C`, which melting point is on record?
Answer: 84.5 to 86 °C

Question: Which melting point does the source give for `O=C1C(CCO)Oc2ccc(-c3ccccc3)cc2N1Cc1cccc(Cl)c1` (stereo unspecified) here?
Answer: 119 to 121 °C

Question: With `O=C(Nc1ccc(N2CCOCC2)c(C(F)(F)F)c1)c1ccc(F)c(OCc2cccnc2)c1` as the molecule, how does the melting point read?
Answer: 160 to 161 °C

Question: For `N#Cc1cccc(C(=O)c2ccc(C3CCCCC3)cc2)c1`, which melting point is on record?
Answer: 73 to 74 °C

Question: For `Cc1cc(-c2cc(O)c(SCCc3ccccc3)c(=O)o2)ccc1OCc1ccccc1`, which melting point is on record?
Answer: 147 to 148 °C

Question: Which melting point does the source give for `CN(C(=O)CN(C(=O)CNC(=O)Nc1cccc(CO)c1)c1ccccc1)c1ccccc1` here?
Answer: 120 °C

Question: Which melting point does the source give for `Cn1cnc(COc2nc3c(cc2-c2cccc(F)c2)nnn3-c2ccccc2F)n1` here?
Answer: 202 to 205 °C

Question: Which melting point does the source give for `CC(=O)Oc1ccc(-c2cnc(-c3ccccc3)[nH]c2=O)cc1OC(C)=O` here?
Answer: 240 °C

Question: Which melting point does the source give for `Nc1cc(Cl)nc(SC/C=C/C(=O)N2CCCC2)n1` here?
Answer: 178 to 180 °C

Question: With `O=C(C(=O)N1CCC(Oc2cccc(Cl)c2)CC1)c1c[nH]c2ccccc12` as the molecule, how does the melting point read?
Answer: 145 to 147 °C

Question: For `Cc1ccc(-c2ccc(S(N)(=O)=O)cc2)n1-c1ccc(F)cc1`, which melting point is on record?
Answer: 147 to 148 °C

Question: Which melting point does the source give for `O=C(O)CNC(=O)c1nc2ccccc2cc1O` here?
Answer: 191 °C

Question: Which melting point does the source give for `CC(Oc1ccc(Oc2ccc3ccc(Br)cc3n2)cc1)C(=O)NCC(=O)O` (stereo unspecified) here?
Answer: 157 to 159 °C

Question: With `COC(=O)CS(=O)(=O)CCCCCn1nc(-c2ccccc2)c(-c2ccccc2)c1-c1ccccc1` as the molecule, how does the melting point read?
Answer: 102 °C

Question: Which melting point does the source give for `Cn1cccc1C(=O)Nc1ccc(-n2nc(C(F)(F)F)cc2C(F)(F)F)cc1` here?
Answer: 148 to 149 °C

Question: Which melting point does the source give for `Clc1cc(-c2ccc3c(c2)CCO3)nc2ccccc12` here?
Answer: 130 to 132 °C

Question: Which melting point does the source give for `Cc1nc2ccc(Cl)cc2s1` here?
Answer: 85 to 86 °C

Question: Which melting point does the source give for `COc1cccc(-c2ccc3c(c2)CC[C@H]2N(C)C(=O)CC[C@]32C)c1` here?
Answer: 140 °C

Question: For `CCC(=O)c1ccc(=O)[nH]c1C=CN(C)C`, which melting point is on record?
Answer: 204 to 206 °C

Question: Which melting point does the source give for `CC(C)(C)ONC(=O)c1ccc(Cc2ccc(N)cc2)cc1` here?
Answer: 110 to 118 °C

Question: For `COc1nc2cccc(C=O)c2nc1OC`, which melting point is on record?
Answer: 137 to 140 °C

Question: Which melting point does the source give for `CC(C)(C)C1CCC2(CC1)CC(O)(CNC1CCCCC1)CO2` (stereo unspecified) here?
Answer: 113 to 115 °C

Question: For `CC1(C)Nc2ncc(I)cc2NC1=O`, which melting point is on record?
Answer: > 300 °C
